Results on two compounds are retold here after paper PMC8047011, “Enantiomers of 2-methylglutamate and 2-methylglutamine selectively impact mouse brain metabolism and behavior” (Scientific Reports, 2021).

One assay addresses T1, mGluR1 (Rattus norvegicus, UniProt P23385).
T1 construct: purchased SB Drug Discovery (CNS discovery panel, FLIPR); Eurofins Discovery (Cerep)
Nature of the assay: mGluR1 radioligand binding assay. Particulars: triplicate. Here is the method:
(§1) mGluR1, mGluR2, mGluR5 and GABAB binding assays were performed by Eurofins Discovery. […]
(§2) [3H]CGP-54626 and [3H]quisqalic acid, respectively. All compounds were tested at a single
(§3) concentration of 100 uM in triplicate. […]

Another assay deals with T2, mGluR5 (Homo sapiens, UniProt P41594).
T2 construct: purchased SB Drug Discovery (CNS discovery panel, FLIPR); Eurofins Discovery (Cerep)
T2 sequence (P41594 21-1212): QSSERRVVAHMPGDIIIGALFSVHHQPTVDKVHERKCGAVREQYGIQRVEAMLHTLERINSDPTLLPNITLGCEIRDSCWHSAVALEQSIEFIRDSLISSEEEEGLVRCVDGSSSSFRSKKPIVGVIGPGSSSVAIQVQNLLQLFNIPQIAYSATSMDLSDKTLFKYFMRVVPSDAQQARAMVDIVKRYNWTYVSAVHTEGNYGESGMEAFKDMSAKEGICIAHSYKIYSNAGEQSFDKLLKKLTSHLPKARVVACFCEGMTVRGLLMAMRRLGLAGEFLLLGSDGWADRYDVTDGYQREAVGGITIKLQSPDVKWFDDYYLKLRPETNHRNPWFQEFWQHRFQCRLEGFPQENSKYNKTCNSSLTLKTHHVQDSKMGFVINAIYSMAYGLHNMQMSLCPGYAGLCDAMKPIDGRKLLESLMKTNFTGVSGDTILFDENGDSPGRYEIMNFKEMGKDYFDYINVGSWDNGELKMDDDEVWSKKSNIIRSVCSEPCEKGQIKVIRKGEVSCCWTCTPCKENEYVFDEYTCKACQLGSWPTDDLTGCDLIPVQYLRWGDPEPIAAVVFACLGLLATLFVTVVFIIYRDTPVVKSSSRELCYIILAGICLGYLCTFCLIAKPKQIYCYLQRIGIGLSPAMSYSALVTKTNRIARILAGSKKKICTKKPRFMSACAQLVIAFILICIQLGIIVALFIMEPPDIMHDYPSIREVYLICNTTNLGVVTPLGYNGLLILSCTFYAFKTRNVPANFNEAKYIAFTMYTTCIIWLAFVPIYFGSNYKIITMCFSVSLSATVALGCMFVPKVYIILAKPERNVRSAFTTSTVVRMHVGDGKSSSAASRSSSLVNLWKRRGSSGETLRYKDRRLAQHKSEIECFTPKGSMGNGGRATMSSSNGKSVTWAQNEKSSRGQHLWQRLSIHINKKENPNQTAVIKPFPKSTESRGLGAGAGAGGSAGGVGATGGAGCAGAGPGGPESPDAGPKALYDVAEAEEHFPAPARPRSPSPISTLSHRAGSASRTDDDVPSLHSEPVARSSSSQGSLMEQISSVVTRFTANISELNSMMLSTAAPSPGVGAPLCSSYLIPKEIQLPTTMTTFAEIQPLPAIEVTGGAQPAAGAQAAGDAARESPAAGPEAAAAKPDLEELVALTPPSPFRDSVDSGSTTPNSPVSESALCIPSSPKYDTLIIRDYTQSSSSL
Nature of the assay: mGluR5 radioligand binding assay. Conditions: triplicate. Here is the method: as §1
(§4) mGluR5 and GABAB binding assays were performed using recombinant CHO-K1 cells and
as §2, §3

The next assay concerns AMPA nonspecific. Nature of the assay: Nonspecific AMPA binding assay. Particulars: 100 μM, triplicate; rat. Here is the method: Nonspecific AMPA, kainate and NMDA binding assays were performed by Eurofins Discovery
(Cerep) using rat cerebral cortex membranes and radiolabeled [3H]AMPA, [3H]kainic acid and
[3H]CGP 39653, respectively. […]

The next assay has as its target T3, GABAA α2β2γ2 (Homo sapiens, UniProt P47869+P47870).
T3 construct: host or cells: HEK 293
Description: FLIPR functional receptor assay, GABAA α2β2γ2. The class given is cell-based. Conditions: agonist mode; top test concentration 1 mM. On the procedure: (§5) Receptor functional & binding assays
(§6) Functional assays of all GABAA, NMDA (GluN2A–GluN2D) and AMPA (GluA2) receptor subunits were performed by SB Drug Discovery as a part of their CNS discovery panel using FLIPR technology. Briefly, receptor-expressing HEK 293 cell lines were incubated in a red membrane potential dye in HEPES:HBSS pH 7.4 buffer and the fluorescence (λex: 488, λex: 510–570) was monitored over time as the test compounds and/or reference compounds were added to the solution. In agonist assay, only test compounds were added. In positive allosteric modulator assay, cells were preincubated with test compounds and then low concentration (approximately EC20) of an appropriate agonist was added. In antagonist assay, cells were preincubated with test compounds and then high concentration (approximately EC80) of an appropriate agonist was added. For GABAA assays, GABA was used as the agonist, picrotoxin was used as the reference antagonist and allopregnanolone was used as the reference positive allosteric modulator (PAM). For NMDA assays, a mixture of glutamate, glycine and CaCl2 was used as the agonist, MK801 was the reference antagonist and pregnenolone sulfate or GNE 9278 were used as reference PAMs. […] All compounds were tested at 7 concentration points in triplicate and EC50/IC50 was determined where applicable. […]

In another assay the target is T4, GABAA α2β3γ2 (Homo sapiens, UniProt P28472+P47869).
T4 construct: host or cells: HEK 293
Nature of the assay: FLIPR functional receptor assay, GABAA α2β3γ2. The class given is cell-based. Particulars: agonist mode; top test concentration 1 mM. On the procedure: as §5, §6

The next assay has as its target T5, GABAA α3β2γ2 (Homo sapiens, UniProt P34903+P47870).
T5 construct: host or cells: HEK 293
Nature of the assay: FLIPR functional receptor assay, GABAA α3β2γ2. The class given is cell-based. Particulars: agonist mode; top test concentration 1 mM. Here is the method: as §5, §6

For the next assay, the target named is T6, GABAA α3β3γ2 (Homo sapiens, UniProt P28472+P34903).
T6 construct: host or cells: HEK 293
T6 sequence (P34903 29-492): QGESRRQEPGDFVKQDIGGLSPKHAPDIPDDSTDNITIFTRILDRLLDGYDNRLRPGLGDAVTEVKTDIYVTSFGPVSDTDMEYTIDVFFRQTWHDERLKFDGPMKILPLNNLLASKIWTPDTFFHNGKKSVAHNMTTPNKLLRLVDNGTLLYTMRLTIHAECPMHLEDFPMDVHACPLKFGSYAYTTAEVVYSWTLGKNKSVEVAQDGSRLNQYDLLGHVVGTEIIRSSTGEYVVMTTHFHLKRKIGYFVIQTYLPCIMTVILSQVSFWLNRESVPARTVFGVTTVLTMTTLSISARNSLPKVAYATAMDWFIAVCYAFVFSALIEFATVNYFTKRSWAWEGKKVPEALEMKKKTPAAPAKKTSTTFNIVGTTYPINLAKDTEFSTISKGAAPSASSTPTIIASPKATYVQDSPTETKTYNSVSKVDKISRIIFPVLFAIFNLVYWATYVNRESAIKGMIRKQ
T6 sequence (P28472 26-473): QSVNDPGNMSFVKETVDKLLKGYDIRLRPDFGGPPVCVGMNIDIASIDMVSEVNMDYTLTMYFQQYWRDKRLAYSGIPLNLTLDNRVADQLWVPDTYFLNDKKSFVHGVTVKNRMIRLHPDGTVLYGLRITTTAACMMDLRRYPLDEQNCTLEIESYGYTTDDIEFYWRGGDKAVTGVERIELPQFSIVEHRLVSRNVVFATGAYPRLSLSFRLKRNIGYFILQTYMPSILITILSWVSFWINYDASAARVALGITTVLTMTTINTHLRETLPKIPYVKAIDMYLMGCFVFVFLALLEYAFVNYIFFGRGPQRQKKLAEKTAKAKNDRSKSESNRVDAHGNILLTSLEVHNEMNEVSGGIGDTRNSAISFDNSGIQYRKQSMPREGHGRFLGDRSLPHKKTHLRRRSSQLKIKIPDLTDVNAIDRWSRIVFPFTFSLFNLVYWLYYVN
T6 sequence (P18507 40-475 partner): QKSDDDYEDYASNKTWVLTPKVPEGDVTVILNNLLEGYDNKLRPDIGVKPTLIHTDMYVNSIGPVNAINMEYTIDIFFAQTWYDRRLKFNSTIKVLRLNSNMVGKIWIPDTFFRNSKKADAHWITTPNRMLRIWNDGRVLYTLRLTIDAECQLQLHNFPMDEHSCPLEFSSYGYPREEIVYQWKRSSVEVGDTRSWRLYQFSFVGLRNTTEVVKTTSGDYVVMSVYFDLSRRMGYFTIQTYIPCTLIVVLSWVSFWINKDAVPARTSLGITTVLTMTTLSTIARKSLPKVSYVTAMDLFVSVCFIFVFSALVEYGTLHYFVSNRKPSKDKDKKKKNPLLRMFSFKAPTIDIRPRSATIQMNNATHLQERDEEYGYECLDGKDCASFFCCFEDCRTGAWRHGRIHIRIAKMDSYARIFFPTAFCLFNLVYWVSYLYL
Nature of the assay: FLIPR functional receptor assay, GABAA α3β3γ2. The assay is classed as cell-based. Particulars: top test concentration 1 mM; for EC50: agonist mode. Here is the method: as §5
Functional assays of all GABAA, NMDA (GluN2A–GluN2D) and AMPA (GluA2) receptor subunits were performed by SB Drug Discovery as a part of their CNS discovery panel using FLIPR technology. Briefly, receptor-expressing HEK 293 cell lines were incubated in a red membrane potential dye in HEPES:HBSS pH 7.4 buffer and the fluorescence (λex: 488, λex: 510–570) was monitored over time as the test compounds and/or reference compounds were added to the solution. In agonist assay, only test compounds were added. In positive allosteric modulator assay, cells were preincubated with test compounds and then low concentration (approximately EC20) of an appropriate agonist was added. In antagonist assay, cells were preincubated with test compounds and then high concentration (approximately EC80) of an appropriate agonist was added. For GABAA assays, GABA was used as the agonist, picrotoxin was used as the reference antagonist and allopregnanolone was used as the reference positive allosteric modulator (PAM). For NMDA assays, a mixture of glutamate, glycine and CaCl2 was used as the agonist, MK801 was the reference antagonist and pregnenolone sulfate or GNE 9278 were used as reference PAMs. For AMPA assays, glutamate was used as the agonist, CNQX was the reference antagonist and cyclothiazide was used as the reference PAM. All compounds were tested at 7 concentration points in triplicate and EC50/IC50 was determined where applicable. […]

A further assay concerns the target T7, GABAB (B1a/B2) (Homo sapiens, UniProt Q9UBS5).
T7 construct: purchased SB Drug Discovery (CNS discovery panel, FLIPR); Eurofins Discovery (Cerep)
Nature of the assay: GABAB (B1a/B2) binding assay. Particulars: triplicate, read-out: % of radioligand binding inhibition, GABAB (B1a/B2). On the procedure:
as §1, §4, §2, §3

Another assay concerns the target T8, GABAB (B1b/B2) (Homo sapiens, UniProt Q9UBS5).
T8 construct: purchased SB Drug Discovery (CNS discovery panel, FLIPR); Eurofins Discovery (Cerep)
Description: GABAB (B1b/B2) binding assay. Conditions: triplicate, read-out: % of radioligand binding inhibition, GABAB (B1b/B2). Here is the method: as §1, §4, §2, §3

The subject of assay [1] is mouse cerebral synaptosomes. Description: Synaptosomal neurotransmitter uptake assay. Particulars: 10 μM substrate; for Transport into synaptosomes: 37 °C. The class given is cell-based. Here is the method: Mouse cerebral synaptosomes were prepared according to published methods. See Supplementary Methods for details. 500 μL aliquots of the synaptosome suspension were transferred to pre-chilled microcentrifuge tubes for experiments. Centrifugations were at 8000g for 4 min at 4 °C, unless stated otherwise, and all samples were stored at − 80 °C.
To each tube, 5 μL of a test compound solution (final concentration 10 μM) in Buffer KRP or Buffer KRP alone were added. Samples were incubated at 4 °C or 37 °C for 1, 10, or 30 min and then immediately centrifuged and washed twice by resuspension–centrifugation with Buffer S (0.5 mL). Resulting pellets were resuspended in 170 μL of 0.1% aqueous formic acid and mixed with 330 μL of ACN.
Buffer S (4 mL, × 1) and Buffer KRP (2 mL, × 3). The resulting pellet was resuspended in 3 mL of Buffer KRP and filtered on Ultrafree-CL 5 μm PVDF centrifugal device (1,000g for 4 min at 4 °C). The filtrate was diluted to 15 mL with ice cold Buffer KRP and kept on ice. The synaptosome preparation was used immediately in the following experiments.
Synaptosomal neurotransmitter uptake assay
96-well plate experiments: 250 μL aliquots of the synaptosome suspension were transferred to two 0.8-mL 96 well plates, one on ice (0 °C samples only) and one in a thermoblock (37 °C samples only), and equilibrated for 10 min. 5 μL of a test compound (0.5 mM; final concentration: 10 μM) in Buffer KRP or Buffer KRP blank were added 10, 20 or 30 min before the incubation termination. “0 min” samples were prepared by placing the test compound solution in a separate pre-chilled V-shape bottom 2-mL 96 well plate; at the end of incubation 200 μL aliquots of all samples were transferred to the 2-mL 96 well plate and centrifuged (2,500g for 15 min at 4 °C) immediately. The resulting pellets were rinsed with Buffer KRP, followed by centrifugation, twice, then resuspended in 200 μL of 60% ACN containing 2.5 μM Glu-d5 as internal standard and stored at –80 °C until analysis. […]

In assay [2] the target is human glutamine synthetase (Homo sapiens, UniProt P15104). Description: Catalysis of 2MeGlu C5-amidation by human glutamine synthetase. The assay is classed as biochemical. Conditions: 10 mM substrate, 5 ng/mL enzyme, ATP, NH4Cl. Here is the method: The procedure was adapted from an existing protocol. To a reaction mixture in a 1.5 mL microcentrifuge tube containing 10 mM substrate, 10 mM ATP, 20 mM MgCl2, 40 mM NH4Cl, 25 mM 2-mercaptoethanol in 100 mM imidazole–HCl buffer pH 7.0, recombinant human glutamine synthetase (final concentration: 5 ng/mL) was added. The tubes were incubated in a preheated thermomixer at 37 °C and shaken at 600 rpm (30 s on, 30 s off). 5 μL aliquots were collected in triplicate every 5 min and immediately diluted with 195 μL of cold 60% ACN containing 10 μM Glu-d5 and Gln-d5 as internal standards in a 96 well plate. After collecting all samples, 200 μL of ACN was added to all wells and the plate was shaken at 1000 rpm for 5 min at room temperature, and then stored at − 80 °C until analysis.

Where [3] appears, read: read-out: % of radioligand binding inhibition, mGluR5 (first line of Table S4).
The mark [4] stands for this setting: read-out: % of radioligand binding inhibition, mGluR5 (second line of Table S4).

Where two headings read alike, the source gives them in different places. Some results are limits rather than exact numbers.

Broadly, the EC50 is the concentration at which the effect is half-maximal. Low readings indicate higher potency in that assay, high ones lower potency in that assay. A word on the IC50: it is the concentration that inhibits the measured activity by half. Low readings indicate greater potency in that assay, high ones weaker potency in that assay.

T8 sequence (Q9UBS5 1-844 isoform Q9UBS5-2): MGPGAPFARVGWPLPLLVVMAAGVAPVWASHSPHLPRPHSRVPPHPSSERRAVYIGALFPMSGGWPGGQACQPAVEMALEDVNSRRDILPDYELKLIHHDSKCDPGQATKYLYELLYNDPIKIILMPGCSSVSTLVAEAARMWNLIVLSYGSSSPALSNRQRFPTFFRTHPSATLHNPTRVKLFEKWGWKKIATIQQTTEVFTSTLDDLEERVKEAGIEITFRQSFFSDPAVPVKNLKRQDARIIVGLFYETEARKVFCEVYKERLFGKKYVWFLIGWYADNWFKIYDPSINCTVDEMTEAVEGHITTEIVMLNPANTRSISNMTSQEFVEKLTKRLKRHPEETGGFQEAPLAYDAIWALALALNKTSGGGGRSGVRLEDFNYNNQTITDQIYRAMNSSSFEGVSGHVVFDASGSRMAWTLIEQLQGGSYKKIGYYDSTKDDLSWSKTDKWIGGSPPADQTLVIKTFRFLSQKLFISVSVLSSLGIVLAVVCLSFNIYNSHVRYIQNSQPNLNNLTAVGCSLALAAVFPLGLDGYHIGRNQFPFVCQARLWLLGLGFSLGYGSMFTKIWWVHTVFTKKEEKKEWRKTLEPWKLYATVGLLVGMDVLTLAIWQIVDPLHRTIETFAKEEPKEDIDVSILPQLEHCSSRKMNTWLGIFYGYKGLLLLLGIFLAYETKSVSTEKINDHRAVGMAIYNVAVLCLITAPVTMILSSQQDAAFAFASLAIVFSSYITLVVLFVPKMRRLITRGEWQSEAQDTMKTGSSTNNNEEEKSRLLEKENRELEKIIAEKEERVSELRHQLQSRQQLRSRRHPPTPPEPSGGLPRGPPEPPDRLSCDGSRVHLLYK
T8 sequence (O75899 42-941 partner): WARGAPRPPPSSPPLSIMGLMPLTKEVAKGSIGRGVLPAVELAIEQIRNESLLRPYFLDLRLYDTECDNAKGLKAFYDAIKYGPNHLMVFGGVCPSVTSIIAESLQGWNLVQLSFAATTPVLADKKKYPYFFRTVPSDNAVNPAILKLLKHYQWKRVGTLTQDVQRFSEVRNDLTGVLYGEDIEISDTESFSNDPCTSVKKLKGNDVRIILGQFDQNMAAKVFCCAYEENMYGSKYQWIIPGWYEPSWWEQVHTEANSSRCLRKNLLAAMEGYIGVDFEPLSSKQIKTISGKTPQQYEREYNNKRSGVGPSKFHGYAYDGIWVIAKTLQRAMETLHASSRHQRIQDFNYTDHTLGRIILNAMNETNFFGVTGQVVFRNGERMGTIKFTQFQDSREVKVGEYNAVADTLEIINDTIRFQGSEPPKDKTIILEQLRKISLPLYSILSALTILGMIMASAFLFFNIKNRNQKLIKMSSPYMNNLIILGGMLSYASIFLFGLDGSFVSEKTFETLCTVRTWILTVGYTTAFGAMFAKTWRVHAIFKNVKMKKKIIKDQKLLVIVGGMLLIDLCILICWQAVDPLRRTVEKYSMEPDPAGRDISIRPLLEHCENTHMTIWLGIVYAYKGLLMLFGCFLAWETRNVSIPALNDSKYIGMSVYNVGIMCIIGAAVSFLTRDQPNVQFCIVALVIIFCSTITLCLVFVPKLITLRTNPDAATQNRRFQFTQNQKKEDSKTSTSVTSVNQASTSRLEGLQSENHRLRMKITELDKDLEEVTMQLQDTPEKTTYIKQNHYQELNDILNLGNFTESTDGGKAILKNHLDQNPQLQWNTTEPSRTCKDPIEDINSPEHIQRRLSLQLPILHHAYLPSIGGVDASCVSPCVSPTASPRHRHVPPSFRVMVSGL
T5 sequence (P34903 29-492): as the sequence (P34903 29-492) above
T5 sequence (P47870 25-512 limits assumed): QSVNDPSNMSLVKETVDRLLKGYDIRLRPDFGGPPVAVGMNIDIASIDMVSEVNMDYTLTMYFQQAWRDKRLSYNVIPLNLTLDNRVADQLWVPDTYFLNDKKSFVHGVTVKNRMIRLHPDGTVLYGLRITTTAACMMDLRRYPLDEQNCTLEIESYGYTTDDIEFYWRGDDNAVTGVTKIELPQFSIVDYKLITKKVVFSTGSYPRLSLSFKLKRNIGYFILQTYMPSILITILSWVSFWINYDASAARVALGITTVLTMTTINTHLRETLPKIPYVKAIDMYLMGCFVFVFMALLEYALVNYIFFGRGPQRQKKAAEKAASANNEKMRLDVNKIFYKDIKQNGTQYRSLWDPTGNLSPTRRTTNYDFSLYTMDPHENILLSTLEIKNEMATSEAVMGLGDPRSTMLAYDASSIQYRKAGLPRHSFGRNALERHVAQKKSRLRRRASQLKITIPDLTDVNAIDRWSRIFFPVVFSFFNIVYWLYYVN
T5 sequence (P18507 40-475 partner): as the sequence (P18507 40-475 partner) above

`C[C@](N)(CCC(=O)O)C(=O)O` [(S)-2MeGlu, (S)-2-methylglutamic acid]: the inhibition at 100 µM is 6% on mGluR1; 11% at mGluR5 (setting [3]); -4% at mGluR5 (setting [4]); 6% at GABAB (B1a/B2); 14% at GABAB (B1b/B2). In addition, in the assay with AMPA nonspecific, the “% of radioligand binding inhibition, AMPA nonspec” value was found to be 12%. Also, the EC50 at GABAA α2β2γ2 turned out to be 530 µM; on GABAA α2β3γ2 it was 342 µM; at GABAA α3β2γ2, 961 µM; at GABAA α3β3γ2, 725 µM. Besides, the IC50 against GABAA α3β3γ2 (antagonist mode) stood at 978 µM. For the same compound, the “Synaptosomal uptake rate relative to the R enantiomer” value in [1] was “approximately threefold faster”. Further, the Transport into synaptosomes entry in [1] is given as “transported into synaptosomes”. In addition, the “Substrate for glutamine synthetase (GS)” value in assay [2] is “is a substrate for GS”.
As to `C[C@@](N)(CCC(=O)O)C(=O)O` [(R)-2MeGlu, (R)-2-methylglutamic acid], the inhibition at 100 µM is -3% at mGluR1; -20% on mGluR5 (setting [3]); -2% on mGluR5 (setting [4]); 18% at GABAB (B1a/B2); 13% at GABAB (B1b/B2). Moreover, the “% of radioligand binding inhibition, AMPA nonspec” value in the assay on AMPA nonspecific was determined as 15%. Also, the EC50 was 660 µM at GABAA α2β2γ2, 622 µM at GABAA α2β3γ2, more than 1000 µM at GABAA α3β2γ2 and 959 µM on GABAA α3β3γ2. In assay [1], the Transport into synaptosomes result is reported as “transported into synaptosomes”. Besides, in assay [2], the “Substrate for glutamine synthetase (GS)” value is listed as “not a substrate for GS”.
